Numbered stars: 1 amine (or outer) side, 2 acyl side, 3 side chain; on linkers, the order of the positions; unused ones are H or OH. Bridge positions count the residues as written; N and C are the ends. Square brackets hold non-standard residues; d marks the D form. Peptide text beside a SMILES is read from it. * marks the point of attachment. C20 diacid = O=C(O)CCCCCCCCCCCCCCCCCCC(=O)*; γGlu = O=C(O)[C@H](CCC(=O)[*:2])N[*:1]; Hyp = O=C(O)[C@@H]1C[C@@H](O)CN1; Cit = NC(=O)NCCC[C@H](N)C(=O)O
Legend:
hAM1 receptor = hAM1 receptor (Homo sapiens, UniProt O60895+Q16602); experiment: cAMP assay for in vitro receptor activation, hAM1-R; assay type: cell-based; conditions: cAMP assay, hAM1 receptor; read-out: hAM1R EC50
Chain of hAM1 receptor (Q16602 23-461): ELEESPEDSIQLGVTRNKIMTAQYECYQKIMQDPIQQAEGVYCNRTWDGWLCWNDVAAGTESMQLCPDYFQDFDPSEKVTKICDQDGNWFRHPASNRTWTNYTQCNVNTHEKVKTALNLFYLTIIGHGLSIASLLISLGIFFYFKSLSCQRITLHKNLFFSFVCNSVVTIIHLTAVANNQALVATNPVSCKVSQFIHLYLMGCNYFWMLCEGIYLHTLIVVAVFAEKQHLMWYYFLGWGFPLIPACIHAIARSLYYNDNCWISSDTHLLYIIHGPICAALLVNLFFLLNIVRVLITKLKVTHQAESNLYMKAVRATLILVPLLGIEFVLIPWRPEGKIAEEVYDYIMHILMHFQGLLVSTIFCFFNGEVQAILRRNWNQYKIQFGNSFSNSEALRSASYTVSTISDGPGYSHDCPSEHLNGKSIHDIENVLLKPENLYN
Chain of hAM1 receptor (O60895 43-175 partner): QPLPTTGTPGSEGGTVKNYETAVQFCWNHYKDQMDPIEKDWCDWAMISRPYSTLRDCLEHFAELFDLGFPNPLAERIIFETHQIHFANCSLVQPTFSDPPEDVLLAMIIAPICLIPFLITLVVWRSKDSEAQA
Procedure: General Protocols for cAMP Assays for Measuring In Vitro Receptor Activation
Cells stably overexpressing the hAM1 receptor were obtained from Ogeda (now Astellas Pharma), sub-cloned and a monoclonal cell-line with an appropriate assay-window was expanded, aliquoted and frozen. An aliquot was thawed and plated in DPBS with 0.05% casein and 0.5 mM IBMX as 8000 cells/well in a 384-well format.

hAMY3 receptor = biological target: T1, hAMY3 receptor (Homo sapiens, UniProt O60896+P30988); experiment: cAMP assay for in vitro receptor activation, hAMY3-R; assay type: cell-based; conditions: cAMP assay, hAMY3 receptor; read-out: hAMY3R EC50
T1 sequence (P30988 25-474): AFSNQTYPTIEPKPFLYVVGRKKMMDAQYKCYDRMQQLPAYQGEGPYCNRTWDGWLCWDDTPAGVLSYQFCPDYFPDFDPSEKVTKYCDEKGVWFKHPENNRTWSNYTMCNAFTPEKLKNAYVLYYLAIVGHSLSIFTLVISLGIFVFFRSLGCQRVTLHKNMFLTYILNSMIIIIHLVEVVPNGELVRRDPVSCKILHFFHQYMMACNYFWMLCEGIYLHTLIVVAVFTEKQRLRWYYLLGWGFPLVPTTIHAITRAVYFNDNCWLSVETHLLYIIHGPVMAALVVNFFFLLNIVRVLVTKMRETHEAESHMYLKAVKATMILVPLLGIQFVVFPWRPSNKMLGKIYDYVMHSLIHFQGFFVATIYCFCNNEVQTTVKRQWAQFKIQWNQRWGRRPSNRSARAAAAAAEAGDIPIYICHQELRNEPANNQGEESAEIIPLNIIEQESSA
T1 sequence (O60896 24-148 partner): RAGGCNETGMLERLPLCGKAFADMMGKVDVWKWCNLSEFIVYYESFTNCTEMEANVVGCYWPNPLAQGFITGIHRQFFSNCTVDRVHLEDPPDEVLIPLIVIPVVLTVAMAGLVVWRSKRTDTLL
Outline: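 Monoclonal cell line stably overexpressing hAMY3 receptor, plated in DPBS with 0.05% casein and 0.5 mM IBMX, was stimulated with graded compound doses for 30 min at room temperature. cAMP accumulation was read by time-resolved FRET one hour after adding detection reagents.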

| EC50 (hAM1 receptor) [nM] | EC50 (hAMY3 receptor) [nM] | Compound |
| --- | --- | --- |
| > 5000 | 0.008 | CC[C@H](C)[C@H](NC(=O)[C@H](C)NC(=O)CNC(=O)[C@H](Cc1ccccc1)NC(=O)[C@H](CC(N)=O)NC(=O)[C@H](CC(N)=O)NC(=O)[C@H](CO)NC(=O)[C@H](CO)NC(=O)[C@H](Cc1c[nH]cn1)NC(=O)[C@@H](NC(=O)[C@H](CC(C)C)NC(=O)[C@H](Cc1ccccc1)NC(=O)[C@H](CC(N)=O)NC(=O)[C@H](C)NC(=O)[C@H](CC(C)C)NC(=O)[C@H](CCCNC(=N)N)NC(=O)[C@H](CCC(N)=O)NC(=O)[C@@H](NC(=O)[C@H](C)NC(=O)[C@@H]1CSSC[C@H](NC(=O)[C@@H](N)CCCCN)C(=O)N[C@@H](CC(N)=O)C(=O)N[C@@H]([C@@H](C)O)C(=O)N[C@@H](C)C(=O)N[C@@H]([C@@H](C)O)C(=O)N1)[C@@H](C)O)C(C)C)C(=O)N[C@@H](CC(C)C)C(=O)N1CCC[C@H]1C(=O)N[C@@H](CCCNC(=N)N)C(=O)N[C@H](C(=O)N[C@@H](CCCCN)C(=O)N[C@H](C(=O)NCC(=O)N[C@@H](CO)C(=O)N[C@@H](CC(N)=O)C(=O)NCC(=O)N[C@@H](Cc1ccc(O)cc1)C(N)=O)C(C)C)[C@@H](C)O [compound 19] (H-KCNTATCATQRLANFLVHSSNNFGAILPRTKVGSNGY-NH2; disulfide 2-7) |
| > 5000 | 0.008 | CC[C@H](C)[C@H](NC(=O)[C@H](CCC(N)=O)NC(=O)[C@H](CC(N)=O)NC(=O)[C@H](C)NC(=O)[C@H](CC(C)C)NC(=O)[C@H](CCCNC(=N)N)NC(=O)[C@H](CCC(N)=O)NC(=O)[C@@H](NC(=O)[C@@H](NC(=O)[C@@H]1CSSC[C@H](NC(=O)[C@H](CCCCN)NC(=O)CC[C@H](NC(=O)CCCCCCCCCCCCCCCCCCC(=O)O)C(=O)O)C(=O)N[C@@H](CC(N)=O)C(=O)N[C@@H]([C@@H](C)O)C(=O)N[C@@H](C)C(=O)N[C@@H]([C@@H](C)O)C(=O)N1)[C@@H](C)O)C(C)C)C(=O)N[C@@H](Cc1ccc(O)cc1)C(=O)N[C@@H](CCC(N)=O)C(=O)N[C@@H](Cc1ccccc1)C(=O)N[C@H](C(=O)N[C@@H](CC(=O)O)C(=O)N[C@@H](CCCCN)C(=O)N[C@@H](CC(=O)O)C(=O)N[C@@H](CCCCN)C(=O)N[C@@H](CC(=O)O)C(=O)N[C@@H](CC(N)=O)C(=O)N[C@H](C(=O)N[C@@H](C)C(=O)N1CCC[C@H]1C(=O)N1CCC[C@H]1C(=O)N[C@H](C(=O)N[C@@H](CC(N)=O)C(=O)N[C@H](C(=O)NCC(=O)N[C@@H](CO)C(=O)N[C@@H](CC(N)=O)C(=O)NCC(=O)N1C[C@H](O)C[C@H]1C(N)=O)C(C)C)[C@@H](C)O)C(C)C)[C@@H](C)O [compound 21] ({C20 diacid-γGlu}-KCNTATCTVQRLANQIYQFTDKDKDNVAPPTNVGSNG[Hyp]-NH2; disulfide 2-7) |
| > 5000 | 0.008 | CC[C@H](C)[C@H](NC(=O)[C@H](CCC(N)=O)NC(=O)[C@H](Cc1c[nH]cn1)NC(=O)[C@H](C)NC(=O)[C@H](CC(C)C)NC(=O)[C@H](CCCNC(=N)N)NC(=O)[C@H](CCC(N)=O)NC(=O)[C@@H](NC(=O)[C@@H](NC(=O)[C@@H]1CSSC[C@H](NC(=O)[C@H](CCCCN)NC(=O)CC[C@H](NC(=O)CCCCCCCCCCCCCCCCCCC(=O)O)C(=O)O)C(=O)N[C@@H](CC(N)=O)C(=O)N[C@@H]([C@@H](C)O)C(=O)N[C@@H](C)C(=O)N[C@@H]([C@@H](C)O)C(=O)N1)[C@@H](C)O)C(C)C)C(=O)N[C@H](C(=O)N[C@@H](CCC(N)=O)C(=O)N[C@@H](Cc1ccccc1)C(=O)N[C@H](C(=O)N[C@@H](CC(=O)O)C(=O)N[C@@H](CCCCN)C(=O)N[C@@H](CC(=O)O)C(=O)N[C@@H](CCCCN)C(=O)N[C@@H](CC(=O)O)C(=O)N[C@@H](CC(N)=O)C(=O)N[C@H](C(=O)N[C@@H](C)C(=O)N1CCC[C@H]1C(=O)N1CCC[C@H]1C(=O)N[C@H](C(=O)N[C@@H](CC(N)=O)C(=O)N[C@H](C(=O)NCC(=O)N[C@@H](CO)C(=O)N[C@@H](CC(N)=O)C(=O)NCC(=O)N1C[C@H](O)C[C@H]1C(N)=O)C(C)C)[C@@H](C)O)C(C)C)[C@@H](C)O)[C@@H](C)O [compound 22] ({C20 diacid-γGlu}-KCNTATCTVQRLAHQITQFTDKDKDNVAPPTNVGSNG[Hyp]-NH2; disulfide 2-7) |
| > 5000 | 0.008 | CC[C@H](C)[C@H](NC(=O)[C@H](CCC(N)=O)NC(=O)[C@H](Cc1c[nH]cn1)NC(=O)[C@H](C)NC(=O)[C@H](CC(C)C)NC(=O)[C@H](CCCNC(=N)N)NC(=O)[C@H](CCC(N)=O)NC(=O)[C@@H](NC(=O)[C@@H](NC(=O)[C@@H]1CSSC[C@H](NC(=O)[C@@H](N)CCCCN)C(=O)N[C@@H](CC(N)=O)C(=O)N[C@@H]([C@@H](C)O)C(=O)N[C@@H](C)C(=O)N[C@@H]([C@@H](C)O)C(=O)N1)[C@@H](C)O)C(C)C)C(=O)N[C@@H](Cc1ccc(O)cc1)C(=O)N[C@@H](CCC(N)=O)C(=O)N[C@@H](Cc1ccccc1)C(=O)N[C@H](C(=O)N[C@@H](CC(=O)O)C(=O)N[C@@H](CCCCN)C(=O)N[C@@H](CC(=O)O)C(=O)N[C@@H](CCCCN)C(=O)N[C@@H](CC(=O)O)C(=O)N[C@@H](CC(N)=O)C(=O)N[C@H](C(=O)N1CCC[C@H]1C(=O)N1CCC[C@H]1C(=O)N[C@H](C(=O)N[C@@H](CC(N)=O)C(=O)N[C@H](C(=O)NCC(=O)N[C@@H](CO)C(=O)N[C@@H](CC(N)=O)C(=O)NCC(=O)N1C[C@H](O)C[C@H]1C(N)=O)C(C)C)[C@@H](C)O)C(C)C)[C@@H](C)O [compound 30] (H-KCNTATCTVQRLAHQIYQFTDKDKDNVPPTNVGSNG[Hyp]-NH2; disulfide 2-7; N-terminus assumed) |
| > 5000 | 0.008 | CC[C@H](C)[C@H](NC(=O)[C@H](CCC(N)=O)NC(=O)[C@H](Cc1c[nH]cn1)NC(=O)[C@H](C)NC(=O)[C@H](CC(C)C)NC(=O)[C@H](CCCNC(=N)N)NC(=O)[C@H](CCC(N)=O)NC(=O)[C@@H](NC(=O)[C@@H](NC(=O)[C@@H]1CSSC[C@H](NC(=O)[C@@H](N)CCCCN)C(=O)N[C@@H](CC(N)=O)C(=O)N[C@@H]([C@@H](C)O)C(=O)N[C@@H](C)C(=O)N[C@@H]([C@@H](C)O)C(=O)N1)[C@@H](C)O)C(C)C)C(=O)N[C@@H](Cc1ccc(O)cc1)C(=O)N[C@@H](CCC(N)=O)C(=O)N[C@@H](Cc1ccccc1)C(=O)N[C@H](C(=O)N[C@@H](CC(=O)O)C(=O)N[C@@H](CCCCN)C(=O)N[C@@H](CC(=O)O)C(=O)N[C@@H](CCCCN)C(=O)N[C@@H](CC(=O)O)C(=O)N[C@@H](CC(N)=O)C(=O)N[C@H](C(=O)N[C@@H](C)C(=O)N1CCC[C@H]1C(=O)N[C@H](C(=O)N[C@@H](CC(N)=O)C(=O)N[C@H](C(=O)NCC(=O)N[C@@H](CO)C(=O)N[C@@H](CC(N)=O)C(=O)NCC(=O)N1C[C@H](O)C[C@H]1C(N)=O)C(C)C)[C@@H](C)O)C(C)C)[C@@H](C)O [compound 31] (H-KCNTATCTVQRLAHQIYQFTDKDKDNVAPTNVGSNG[Hyp]-NH2; disulfide 2-7; N-terminus assumed) |
| > 5000 | 0.008 | CC[C@H](C)[C@H](NC(=O)[C@H](CCC(N)=O)NC(=O)[C@H](CCC(=O)O)NC(=O)[C@H](C)NC(=O)[C@H](CC(C)C)NC(=O)[C@H](CCCNC(N)=O)NC(=O)[C@H](C)NC(=O)[C@@H](NC(=O)[C@@H](NC(=O)[C@@H]1CSSC[C@H](NC(=O)[C@@H](N)CCCNC(=N)N)C(=O)N[C@@H](CCC(N)=O)C(=O)N[C@@H](C)C(=O)N[C@@H](CO)C(=O)N[C@@H]([C@@H](C)O)C(=O)N1)[C@@H](C)O)C(C)C)C(=O)N[C@@H](C)C(=O)N[C@@H](CCC(N)=O)C(=O)N[C@@H](Cc1ccc(O)cc1)C(=O)N[C@H](C(=O)N[C@@H](CC(=O)O)C(=O)N[C@@H](CCCCN)C(=O)N[C@@H](CC(=O)O)C(=O)N[C@@H](CCCCN)C(=O)N[C@@H](CC(=O)O)C(=O)N[C@@H](CCC(N)=O)C(=O)N[C@H](C(=O)N[C@@H](C)C(=O)N1CCC[C@H]1C(=O)N1CCC[C@H]1C(=O)N[C@H](C(=O)N[C@@H](CCC(=O)O)C(=O)N[C@H](C(=O)NCC(=O)N1CCC[C@H]1C(=O)N[C@@H](CC(N)=O)C(=O)N[C@@H](CO)C(=O)N1C[C@H](O)C[C@H]1C(N)=O)C(C)C)[C@@H](C)O)C(C)C)[C@@H](C)O [compound 33] (H-RCQASTCTVA[Cit]LAEQIAQYTDKDKDQVAPPTEVGPNS[Hyp]-NH2; disulfide 2-7; N-terminus assumed) |
